{
  "source": "paper PMC10818623",
  "about": "“Assessing Trans-Inhibition of OATP1B1 and OATP1B3 by Calcineurin and/or PPIase Inhibitors and Global Identification of OATP1B1/3-Associated Proteins” (Pharmaceutics, 2023)",
  "key": {"OATP1B1 [1]": {"molecular_target": "T1, OATP1B1 (Homo sapiens, UniProt Q9Y6L6)", "T1 sequence (Q9Y6L6 1-691)": "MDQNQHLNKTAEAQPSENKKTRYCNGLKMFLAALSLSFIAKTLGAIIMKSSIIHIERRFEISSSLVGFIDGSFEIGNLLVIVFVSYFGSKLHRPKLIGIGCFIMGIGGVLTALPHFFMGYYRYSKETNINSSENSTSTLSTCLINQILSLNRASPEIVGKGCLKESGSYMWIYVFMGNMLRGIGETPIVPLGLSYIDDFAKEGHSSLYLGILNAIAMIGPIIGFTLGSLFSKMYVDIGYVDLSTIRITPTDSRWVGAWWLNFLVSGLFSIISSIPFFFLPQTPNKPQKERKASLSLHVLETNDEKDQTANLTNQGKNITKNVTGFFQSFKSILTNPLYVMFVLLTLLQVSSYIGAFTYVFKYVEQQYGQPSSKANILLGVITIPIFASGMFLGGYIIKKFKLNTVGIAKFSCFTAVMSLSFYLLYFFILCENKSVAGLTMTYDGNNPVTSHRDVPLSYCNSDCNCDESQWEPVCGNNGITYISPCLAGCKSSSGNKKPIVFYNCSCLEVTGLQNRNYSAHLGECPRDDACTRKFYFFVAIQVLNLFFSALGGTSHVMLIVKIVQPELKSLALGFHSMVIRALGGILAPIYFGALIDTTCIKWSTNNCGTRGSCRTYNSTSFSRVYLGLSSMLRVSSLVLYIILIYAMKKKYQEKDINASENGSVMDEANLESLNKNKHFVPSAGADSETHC", "test": "Preincubation-induced trans-inhibition of OATP1B1-mediated [3H]-E217βG transport in HEK293-FLAG-OATP1B1 cells", "assay_type": "cell-based", "design": "expressed in transfected cells", "conditions": "for IC50: washing, [3H]-E217βG 1 µM 2 min without inhibitor, HEK293-FLAG-OATP1B1, read-out: Preincubation IC50 against OATP1B1", "from_the_text": "The IC50 values were estimated by nonlinear regression using the three-parameter model as below with GraphPad Prism v.9.0 (GraphPad Software, La Jolla, CA, USA). E = Bottom + (Top − Bottom)/(1 + (C/IC50))"}, "[2]": {"conditions": "cited from earlier work"}, "OATP1B3 [3]": {"molecular_target": "T2, OATP1B3 (Homo sapiens, UniProt Q9NPD5)", "T2 construct": "expressed in transfected cells", "T2 sequence (Q9NPD5 1-702)": "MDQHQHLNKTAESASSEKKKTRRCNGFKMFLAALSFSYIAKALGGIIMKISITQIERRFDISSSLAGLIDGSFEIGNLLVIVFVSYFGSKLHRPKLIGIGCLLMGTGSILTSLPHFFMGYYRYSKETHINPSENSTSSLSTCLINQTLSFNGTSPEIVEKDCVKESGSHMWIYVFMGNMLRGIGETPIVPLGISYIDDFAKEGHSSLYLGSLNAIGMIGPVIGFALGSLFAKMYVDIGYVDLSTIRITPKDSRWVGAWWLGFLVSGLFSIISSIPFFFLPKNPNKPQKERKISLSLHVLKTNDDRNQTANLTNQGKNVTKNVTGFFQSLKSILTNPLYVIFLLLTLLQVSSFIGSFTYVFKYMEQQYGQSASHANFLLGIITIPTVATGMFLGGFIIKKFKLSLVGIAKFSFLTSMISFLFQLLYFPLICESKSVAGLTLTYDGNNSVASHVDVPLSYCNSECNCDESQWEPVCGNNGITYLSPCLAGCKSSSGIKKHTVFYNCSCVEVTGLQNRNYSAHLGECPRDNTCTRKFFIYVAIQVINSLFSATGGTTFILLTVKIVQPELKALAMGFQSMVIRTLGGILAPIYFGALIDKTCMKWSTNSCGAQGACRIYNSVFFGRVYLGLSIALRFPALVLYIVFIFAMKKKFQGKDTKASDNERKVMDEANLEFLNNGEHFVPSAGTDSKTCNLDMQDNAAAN", "design": "method as in PMID 22240838", "conditions": "cited from earlier work"}, "OATP1B1 [4]": {"molecular_target": "T1, OATP1B1", "conditions": "E1S as substrate; cited from earlier work"}, "human SCH": {"tested_on": "human SCH", "test": "[3H]-pitavastatin accumulation in human sandwich-cultured hepatocytes after inhibitor preincubation and washing", "assay_type": "cell-based", "conditions": "10 µM", "method": "Fresh primary human hepatocytes were purchased from Lonza Walkersville, Inc. (Walkersville, MD, USA). Donor information is provided in Supplementary Table S1. Cell viability was 96% after centrifugation. Culture of human SCH was performed as described previously. In brief, on day 1, cells were plated at 3 × 10^5 cells per well in 24-well Biocoat™ plates (Thermo Fisher Scientific, Waltham, MA, USA). When cells had attached to the plate after 6 h of seeding, cells were overlaid with Matrigel™ (Thermo Fisher Scientific, Waltham, MA, USA) (0.25 mg/mL) in feeding medium: phenol red-free DMEM supplemented with 2 mM L-glutamine, 1% (v/v) MEM NEAA, 100 units/mL of penicillin G sodium, 100 µg/mL of streptomycin sulfate, 0.1 μM dexamethasone, and 1% (v/v) ITS^+ premix. Uptake experiments were conducted on day two of culture, the next day after seeding."}, "OATP1B1 [5]": {"molecular_target": "T1, OATP1B1", "test": "Preincubation-induced trans-inhibition of OATP1B1-mediated [3H]-E1S transport in HEK293-FLAG-OATP1B1 cells", "assay_type": "cell-based", "design": "expressed in transfected cells", "conditions": "E1S 1 µM, 2 min", "method": "(§1) HEK293-FLAG-OATP1B1 and HEK293-FLAG-OATP1B3 cells were seeded at a density of 1.5 × 10^5 cells per well of 24-well plate coated with poly-L-lysine and allowed to grow for 48 h to confluence before uptake studies were performed as published previously; the preincubation effects on OATP1B1- and OATP1B3-mediated transport were also determined as previously published. […] After washing three times with HBSS buffer (pH 7.4), substrate accumulation was determined in the absence of inhibitors. [^3H]-E217βG (1 µM, 2 min) and [^3H]-E1S (1 µM, 2 min) were used as probe substrates for OATP1B1; [^3H]-CCK-8 (1 µM, 3 min) was used as the probe substrate for OATP1B3, similar to previous publications. [^3H]-pitavastatin accumulation (1 µM, 30 s) in human SCH was conducted on day 2 of culture as has been published previously. Substrate accumulation was determined by scintillation counting (LS6500 scintillation counter, Beckman Coulter, Brea, CA) and normalized to a protein concentration determined via BCA assay (Pierce Chemical, Rockford, IL, USA). Transport assays on a blank plate without cells were conducted to correct for the nonspecific binding to the assay plate."}, "OATP1B3 [6]": {"molecular_target": "T2, OATP1B3", "test": "Preincubation-induced trans-inhibition of OATP1B3-mediated [3H]-CCK-8 transport in HEK293-FLAG-OATP1B3 cells", "assay_type": "cell-based", "conditions": "preincubation 10–60 min with tacrolimus 1–10 µM; greatest reduction", "method": "as §1"}},
  "note": "Where “and” joins values, the source holds several entries; their conditions need not be identical. Identical values can stand only once. Like-named read-outs stand apart in the source and are kept apart here.",
  "data": [
    {"smiles": "C=CC[C@@H]1/C=C(\\C)C[C@H](C)C[C@H](OC)[C@H]2O[C@@](O)(C(=O)C(=O)N3CCCC[C@H]3C(=O)O[C@H](/C(C)=C/[C@@H]3CC[C@@H](O)[C@H](OC)C3)[C@H](C)[C@@H](O)CC1=O)[C@H](C)C[C@@H]2OC", "note": "[tacrolimus]", "values": [
      {"measurement": "OATP1B1-mediated transport, reduced up to, fold compared to the control", "setting": "OATP1B1 [1]; preincubation 10–60 min with tacrolimus 1–10 µM, greatest reduction", "value": "0.18 ± 0.03 fold compared to the control"},
      {"measurement": "DDI against atorvastatin", "setting": "[2]", "value": "does not cause DDIs"},
      {"measurement": "DDI against simvastatin", "setting": "[2]", "value": "does not cause DDIs"},
      {"measurement": "Increase of AUC of cerivastatin", "setting": "[2]; long-term tacrolimus treatment, renal transplant recipients", "value": 1.5, "unit": "fold"},
      {"measurement": "Increase of AUC of pravastatin", "setting": "[2]; long-term tacrolimus treatment, two pediatric and adolescent cardiac transplant recipients", "value": "~ 10 fold"},
      {"measurement": "Preincubation-induced trans-inhibition against OATP1B3", "setting": "OATP1B3 [3]", "value": "no preincubation-induced trans-inhibition"},
      {"measurement": "Preincubation-induced trans-inhibition against OATP1B1", "setting": "OATP1B1 [4]", "value": "no preincubation-induced trans-inhibition"},
      {"measurement": "[3H]-pitavastatin accumulation after washout (long-lasting inhibition), fold that of the control", "setting": "human SCH", "value": "0.59 ± 0.09 fold that of the control"},
      {"measurement": "[3H]-pitavastatin accumulation, fold that of the control", "setting": "human SCH; human SCH, 1 h preincubation, washing, pitavastatin 1 µM, 0.5 min, N = 1 donor", "value": "0.58 ± 0.07 fold that of the control"},
      {"measurement": "OATP1B1-mediated transport of [3H]-E1S, fold that of the control", "setting": "OATP1B1 [5]; 1 µM preincubation, 10 min", "value": "0.85 ± 0.02 fold that of the control"},
      {"measurement": "OATP1B1-mediated transport of [3H]-E1S, fold that of the control", "setting": "OATP1B1 [5]; 1 µM preincubation, 30 min", "value": "0.88 ± 0.04 fold that of the control"},
      {"measurement": "OATP1B1-mediated transport of [3H]-E1S, fold that of the control", "setting": "OATP1B1 [5]; 10 µM preincubation, 10 min", "value": "0.59 ± 0.04 fold that of the control"},
      {"measurement": "OATP1B1-mediated transport of [3H]-E1S, fold that of the control", "setting": "OATP1B1 [5]; 10 µM preincubation, 30 min", "value": "0.59 ± 0.05 fold that of the control"},
      {"measurement": "OATP1B1-mediated transport of [3H]-E1S, fold that of the control", "setting": "OATP1B1 [5]; 10 µM preincubation, 60 min", "value": "0.55 ± 0.04 fold that of the control"},
      {"measurement": "OATP1B3-mediated transport, reduced up to, fold compared to the control", "setting": "OATP1B3 [6]", "value": "0.20 ± 0.02 fold compared to the control"}
    ]},
    {"smiles": "C/C=C/C[C@@H](C)[C@@H](O)[C@H]1C(=O)N[C@@H](CC)C(=O)N(C)[C@H](SCCN(C)C)C(=O)N(C)[C@@H](CC(C)(C)O)C(=O)N[C@@H](C(C)C)C(=O)N(C)[C@@H](CC(C)C)C(=O)N[C@@H](C)C(=O)N[C@H](C)C(=O)N(C)[C@@H](CC(C)C)C(=O)N(C)[C@@H](CC(C)C)C(=O)N(C)[C@@H](C(C)C)C(=O)N1C", "note": "[SCY-635]", "values": [
      {"measurement": "IC50", "setting": "OATP1B1 [1]; 10 min preincubation (0.001–10 µM)", "value": "~9.4 µM and 9.4 µM"},
      {"measurement": "IC50", "setting": "OATP1B1 [1]; 30 min preincubation (0.001–10 µM)", "value": "~3.1 µM and 3.1 µM"},
      {"measurement": "IC50", "setting": "OATP1B1 [1]; 60 min preincubation (0.001–10 µM)", "value": "2.2 ± 1.4", "unit": "µM"},
      {"measurement": "IC50 against OATP1B1, fold greater than that of CsA", "setting": "OATP1B1 [1]; 60 min preincubation, SCY-635 IC50 versus CsA IC50", "value": "~ 18 fold"},
      {"measurement": "Preincubation IC50 at 30 min, fold higher than IC50 at 60 min preincubation", "setting": "OATP1B1 [1]; OATP1B1, 30 min versus 60 min preincubation", "value": 1.4, "unit": "fold"},
      {"measurement": "Effect of preincubation on OATP1B1-mediated transport", "setting": "OATP1B1 [1]; SCY-635, all preincubation times, only at 5 and 10 µM, p < 0.00001", "value": "significantly reduced"}
    ]}
  ]
}
